Measured values taken from PubChem BioAssay AID1963974 (Molecular Pharmacology Branch, DTP, NCI, 2024).

System: 648629-189-R-J1-PDC spheroids with HUVEC/MSC, viability
Test: Anticancer human tumor 648629-189-R-J1-PDC patient-derived bladder carcinoma cell line growth inhibition [PI3K]
Conditions: for viability, T/C: stronger effect = lower value
In short: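 Three cell types, namely tumor cells, endothelial cells and mesenchymal stem cells, formed each spheroid. Combinations with four PI3K inhibitors were screened at clinically achievable concentrations decreasing by half-log, and spheroid viability was recorded.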

[1] = curve of first compound, second compound 0.00316 µM
[2] = curve of first compound, second compound 0.01 µM
[3] = curve of first compound, second compound 0.0316 µM
[4] = curve of first compound, second compound 0.1 µM
[5] = curve of first compound, second compound 0.316 µM
[6] = curve of first compound, second compound 1 µM
[7] = second compound 0.00316 µM, first compound 0.0316 µM
[8] = second compound 0.00316 µM, first compound 0.1 µM
[9] = second compound 0.00316 µM, first compound 0.316 µM
[10] = second compound 0.00316 µM, first compound 1 µM
[11] = second compound 0.00316 µM, first compound 3.16 µM
[12] = second compound 0.00316 µM, first compound 10 µM
[13] = second compound 0.01 µM, first compound 0.0316 µM
[14] = second compound 0.01 µM, first compound 0.1 µM
[15] = second compound 0.01 µM, first compound 0.316 µM
[16] = second compound 0.01 µM, first compound 1 µM
[17] = second compound 0.01 µM, first compound 3.16 µM
[18] = second compound 0.01 µM, first compound 10 µM
[19] = second compound 0.0316 µM, first compound 0.0316 µM
[20] = second compound 0.0316 µM, first compound 0.1 µM
[21] = second compound 0.0316 µM, first compound 0.316 µM
[22] = second compound 0.0316 µM, first compound 1 µM
[23] = second compound 0.0316 µM, first compound 3.16 µM
[24] = second compound 0.0316 µM, first compound 10 µM
[25] = second compound 0.1 µM, first compound 0.0316 µM
[26] = second compound 0.1 µM, first compound 0.1 µM
[27] = second compound 0.1 µM, first compound 0.316 µM
[28] = second compound 0.1 µM, first compound 1 µM
[29] = second compound 0.1 µM, first compound 3.16 µM
[30] = second compound 0.1 µM, first compound 10 µM
[31] = second compound 0.316 µM, first compound 0.0316 µM
[32] = second compound 0.316 µM, first compound 0.1 µM
[33] = second compound 0.316 µM, first compound 0.316 µM
[34] = second compound 0.316 µM, first compound 1 µM
[35] = second compound 0.316 µM, first compound 3.16 µM
[36] = second compound 0.316 µM, first compound 10 µM
[37] = second compound 1 µM, first compound 0.0316 µM
[38] = second compound 1 µM, first compound 0.1 µM
[39] = second compound 1 µM, first compound 0.316 µM
[40] = second compound 1 µM, first compound 1 µM
[41] = second compound 1 µM, first compound 3.16 µM
[42] = second compound 1 µM, first compound 10 µM
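Further: spheroids exposed to agents for seven days before reading.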
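Wherever viability, T/C is given: percent of vehicle control luminescence where 100% = DMSO treated spheroids.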

CNC(=O)c1ccc(N2C(=S)N(c3ccc(C#N)c(C(F)(F)F)c3)C(=O)C2(C)C)cc1F + CC(Nc1ccc2c(c1)OCCn1cc(N3C(=O)OCC3C(F)F)nc1-2)C(N)=O gave an IC50 [1] greater than 10 µM, an IC50 [2] greater than 10 µM and an IC50 [3] greater than 10 µM. The IC50 [4] was greater than 10 µM, the IC50 [5] was greater than 10 µM and the IC50 [6] was greater than 10 µM. The viability, T/C [7] was 107%, the viability, T/C [8] was 96.5% and the viability, T/C [9] was 107%. For the same compound, the viability, T/C [10] was 97.6%, the viability, T/C [11] was 110% and the viability, T/C [12] was 83.4%. It also gave a viability, T/C [13] of 99.6%, a viability, T/C [14] of 109% and a viability, T/C [15] of 97.2%. It also gave a viability, T/C [16] of 98.1%, a viability, T/C [17] of 94.8% and a viability, T/C [18] of 87.1%. It also gave a viability, T/C [19] of 103%, a viability, T/C [20] of 107% and a viability, T/C [21] of 102%. The viability, T/C [22] was 101%, the viability, T/C [23] was 90.5% and the viability, T/C [24] was 78.5%. It also gave a viability, T/C [25] of 93%, a viability, T/C [26] of 94.8% and a viability, T/C [27] of 102%. For the same compound, the viability, T/C [28] was 102%, the viability, T/C [29] was 88% and the viability, T/C [30] was 79.2%. The viability, T/C [31] was 83.4%, the viability, T/C [32] was 79.1% and the viability, T/C [33] was 93%. The viability, T/C [34] was 75.5%, the viability, T/C [35] was 84.3% and the viability, T/C [36] was 68%. For the same compound, the viability, T/C [37] was 69.7%, the viability, T/C [38] was 67.5% and the viability, T/C [39] was 72.1%. For the same compound, the viability, T/C [40] was 63.7%, the viability, T/C [41] was 75.4% and the viability, T/C [42] was 68%.
CC(Cn1ccc(-c2ccc(C#N)c(Cl)c2)n1)NC(=O)c1cc(C(C)O)[nH]n1 (stereo not given) + CC(Nc1ccc2c(c1)OCCn1cc(N3C(=O)OCC3C(F)F)nc1-2)C(N)=O showed an IC50 [1] greater than 10 µM, an IC50 [2] greater than 10 µM and an IC50 [3] greater than 10 µM. It also gave an IC50 [4] greater than 10 µM, an IC50 [5] greater than 10 µM and an IC50 [6] greater than 10 µM. The viability, T/C [7] was 99.9%, the viability, T/C [8] was 97.1% and the viability, T/C [9] was 92.5%. For the same compound, the viability, T/C [10] was 90.1%, the viability, T/C [11] was 85.7% and the viability, T/C [12] was 68.3%. It also gave a viability, T/C [13] of 92.7%, a viability, T/C [14] of 97.2% and a viability, T/C [15] of 92.9%. For the same compound, the viability, T/C [16] was 88.3%, the viability, T/C [17] was 89.9% and the viability, T/C [18] was 70.4%. For the same compound, the viability, T/C [19] was 97.2%, the viability, T/C [20] was 98.7% and the viability, T/C [21] was 95.2%. The viability, T/C [22] was 83.5%, the viability, T/C [23] was 83.8% and the viability, T/C [24] was 75.5%. It also gave a viability, T/C [25] of 106%, a viability, T/C [26] of 86.9% and a viability, T/C [27] of 85.8%. For the same compound, the viability, T/C [28] was 86.2%, the viability, T/C [29] was 84.5% and the viability, T/C [30] was 72%. For the same compound, the viability, T/C [31] was 83.8%, the viability, T/C [32] was 87.5% and the viability, T/C [33] was 78.1%. It also gave a viability, T/C [34] of 94.2%, a viability, T/C [35] of 72.8% and a viability, T/C [36] of 58.2%. For the same compound, the viability, T/C [37] was 73.2%, the viability, T/C [38] was 71.6% and the viability, T/C [39] was 61.5%. It also gave a viability, T/C [40] of 67.6%, a viability, T/C [41] of 60% and a viability, T/C [42] of 57.9%.
Work on Cn1nccc1Nc1nccc(-c2ccn(C(CO)c3ccc(Cl)c(F)c3)c(=O)c2)n1 (stereo not given) + COc1c(OCCCN2CCOCC2)ccc2c3n(c(=NC(=O)c4cnc(N)nc4)nc12)CCN3 yielded an IC50 [1] greater than 10 µM, an IC50 [2] greater than 10 µM and an IC50 [3] greater than 10 µM. For the same compound, the IC50 [4] was greater than 10 µM, the IC50 [5] was less than 0.0316 µM and the IC50 [6] was less than 0.0316 µM. For the same compound, the viability, T/C [7] was 103%, the viability, T/C [8] was 92.3% and the viability, T/C [9] was 106%. The viability, T/C [10] was 103%, the viability, T/C [11] was 98% and the viability, T/C [12] was 79.2%. The viability, T/C [13] was 113%, the viability, T/C [14] was 96.8% and the viability, T/C [15] was 104%. The viability, T/C [16] was 111%, the viability, T/C [17] was 107% and the viability, T/C [18] was 79.4%. The viability, T/C [19] was 90.9%, the viability, T/C [20] was 91.4% and the viability, T/C [21] was 86.3%. It also gave a viability, T/C [22] of 110%, a viability, T/C [23] of 102% and a viability, T/C [24] of 79.2%. The viability, T/C [25] was 70.1%, the viability, T/C [26] was 65.7% and the viability, T/C [27] was 64.2%. For the same compound, the viability, T/C [28] was 83%, the viability, T/C [29] was 83.3% and the viability, T/C [30] was 68.8%. The viability, T/C [31] was 20.6%, the viability, T/C [32] was 21.1% and the viability, T/C [33] was 26.9%. The viability, T/C [34] was 28.3%, the viability, T/C [35] was 48.6% and the viability, T/C [36] was 44.5%. The viability, T/C [37] was 3.68%, the viability, T/C [38] was 3.03% and the viability, T/C [39] was 3.39%. The viability, T/C [40] was 3.34%, the viability, T/C [41] was 8.78% and the viability, T/C [42] was 9.04%.
CC(=O)c1c(C)c2cnc(Nc3ccc(N4CCNCC4)cn3)nc2n(C2CCCC2)c1=O + CC(Nc1ncnc2nc[nH]c12)c1cc2cccc(Cl)c2c(=O)n1-c1ccccc1 showed an IC50 [3] greater than 0.1 µM, an IC50 [4] greater than 0.1 µM and an IC50 [5] greater than 0.1 µM. The IC50 [6] was greater than 0.1 µM, the IC50 (curve of first compound, second compound 3.16 µM) was greater than 0.1 µM and the IC50 (curve of first compound, second compound 10 µM) was greater than 0.1 µM. The viability, T/C (second compound 0.0316 µM, first compound 0.000316 µM) was 102%, the viability, T/C (second compound 0.0316 µM, first compound 0.001 µM) was 104% and the viability, T/C (second compound 0.0316 µM, first compound 0.00316 µM) was 101%. The viability, T/C (second compound 0.0316 µM, first compound 0.01 µM) was 92.1%, the viability, T/C [19] was 111% and the viability, T/C [20] was 102%. For the same compound, the viability, T/C (second compound 0.1 µM, first compound 0.000316 µM) was 102%, the viability, T/C (second compound 0.1 µM, first compound 0.001 µM) was 99.2% and the viability, T/C (second compound 0.1 µM, first compound 0.00316 µM) was 98.5%. It also gave a viability, T/C (second compound 0.1 µM, first compound 0.01 µM) of 90.9%, a viability, T/C [25] of 117% and a viability, T/C [26] of 116%. For the same compound, the viability, T/C (second compound 0.316 µM, first compound 0.000316 µM) was 93.1%, the viability, T/C (second compound 0.316 µM, first compound 0.001 µM) was 103% and the viability, T/C (second compound 0.316 µM, first compound 0.00316 µM) was 107%. For the same compound, the viability, T/C (second compound 0.316 µM, first compound 0.01 µM) was 107%, the viability, T/C [31] was 111% and the viability, T/C [32] was 97.9%. It also gave a viability, T/C (second compound 1 µM, first compound 0.000316 µM) of 100%, a viability, T/C (second compound 1 µM, first compound 0.001 µM) of 97.4% and a viability, T/C (second compound 1 µM, first compound 0.00316 µM) of 109%. The viability, T/C (second compound 1 µM, first compound 0.01 µM) was 102%, the viability, T/C [37] was 112% and the viability, T/C [38] was 98.9%. For the same compound, the viability, T/C (second compound 3.16 µM, first compound 0.000316 µM) was 90.8%, the viability, T/C (second compound 3.16 µM, first compound 0.001 µM) was 108% and the viability, T/C (second compound 3.16 µM, first compound 0.00316 µM) was 91.9%. It also gave a viability, T/C (second compound 3.16 µM, first compound 0.01 µM) of 113%, a viability, T/C (second compound 3.16 µM, first compound 0.0316 µM) of 101% and a viability, T/C (second compound 3.16 µM, first compound 0.1 µM) of 107%. The viability, T/C (second compound 10 µM, first compound 0.000316 µM) was 90.3%, the viability, T/C (second compound 10 µM, first compound 0.001 µM) was 92.2% and the viability, T/C (second compound 10 µM, first compound 0.00316 µM) was 95.3%. The viability, T/C (second compound 10 µM, first compound 0.01 µM) was 88.7%, the viability, T/C (second compound 10 µM, first compound 0.0316 µM) was 89.3% and the viability, T/C (second compound 10 µM, first compound 0.1 µM) was 94.3%.
CCN1CCN(Cc2ccc(Nc3ncc(F)c(-c4cc(F)c5nc(C)n(C(C)C)c5c4)n3)nc2)CC1 was tested, and the viability, T/C (compound 0.00316 µM) was 107% [middle of 4 runs], the viability, T/C (compound 0.01 µM) was 96.7% [middle of 4 runs] and the viability, T/C (compound 0.0316 µM) was 103% [middle of 4 runs]. The viability, T/C (compound 0.1 µM) was 103% [middle of 4 runs], the viability, T/C (compound 0.316 µM) was 109% [middle of 4 runs] and the viability, T/C (compound 1 µM) was 117% [middle of 4 runs]. It also gave an IC50 (curve of compound) greater than 1 µM.
